A value given as a limit tells only on which side of the number the result lay.

One test concerns the target His-tagged N-terminal ATP binding domain (amino acid residues 9-236) of HSP90α (Homo sapiens, UniProt P07900). Put plainly: HSP90 inhibitor binding potency: TRF competition binding assay. As to conditions: Table 2; competition with biotinylated radicicol. Put shortly: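 Competition against biotinylated radicicol for binding to the His-tagged 9-236 ATP domain of HSP90α: 2 h, room temperature, HEPES/MgCl2/KCl/BSA buffer. Streptavidin capture, then europium-labeled anti-His antibody and enhancement solution; europium counts give IC50.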
The IC50 is the concentration that inhibits the measured activity by half. High values mean lower potency, low ones higher potency. `CCOc1cccc(-c2cc(F)ccc2[C@H]2Cc3nc(N)nc(C)c3C(=O)N2)n1` [Compound 74] showed an IC50 below 10 µM. The compound `Cc1cc(F)ccc1-c1cc(F)ccc1[C@H]1Cc2nc(N)ncc2C(=O)N1` [Compound 61, (R)-2-Amino-7-(5,4′-difluoro-2′-methyl-biphenyl-2-yl)-7,8-dihydro-6H-pyrido[4,3-d]pyrimidin-5-one] returned an IC50 below 10 µM.

The test is the same for the next values; noted with them: Table 3; competition with biotinylated radicicol.
For the compound `COc1cccc(-c2cc(F)ccc2[C@H]2Cc3nc(N)nc(C)c3C(=O)N2Cc2ccccc2)n1` [Compound 134, (R)-2-Amino-6-benzyl-7-[4-fluoro-2-(6-methoxy-pyridin-2-yl)-phenyl]-4-methyl-7,8-dihydro-6H-pyrido[4,3-d]pyrimidin-5-one], the IC50 was below 10 µM. The compound `COc1ccc(CN2C(=O)c3c(C)nc(N)nc3C[C@@H]2c2ccc(F)cc2-c2cncc(OC)n2)c(OC)c1` [Compound 118, (R)-2-Amino-6-(2,4-dimethoxy-benzyl)-7-[4-fluoro-2-(6-methoxy-pyrazin-2-yl)-phenyl]-4-methyl-7,8-dihydro-6H-pyrido[4,3-d]pyrimidin-5-one] showed an IC50 below 10 µM. The same measure, in the same setting: the result for `COc1cncc(-c2cc(F)ccc2[C@H]2Cc3nc(N)nc(C)c3C(=O)N2Cc2cccc(Cl)c2)n1` [Compound 115, (R)-2-Amino-6-(3-chloro-benzyl)-7-[4-fluoro-2-(6-methoxy-pyrazin-2-yl)-phenyl]-4-methyl-7,8-dihydro-6H-pyrido[4,3-d]pyrimidin-5-one] reads below 10 µM; that for `Cc1nc(N)nc2c1C(=O)N(CCCN)[C@@H](c1ccc(F)cc1-c1cccnc1)C2` [Compound 168, (R)-2-Amino-6-(3-amino-pnlpropyl)-7-(4-fluoro-2-pyridin-3-yl-phenyl)-4-methyl-7,8-dihydro-6H-pyrido[4,3-d]pyrimidin-5-one], below 10 µM; that for `COc1nc(-c2cc(F)ccc2[C@H]2Cc3nc(N)nc(C)c3C(=O)N2)cnc1N` [Compound 101, (R)-2-Amino-7-[2-(5-amino-6-methoxy-pyrazin-2-yl)-4-fluoro-phenyl]-4-methyl-7,8-dihydro-6H-pyrido[4,3-d]pyrimidin-5-one], below 10 µM. On the same count and under the same terms, the result for `COc1cncc(-c2cc(F)ccc2[C@H]2Cc3nc(N)nc(C)c3C(=O)N2Cc2ccncc2)n1` [Compound 121, (R)-2-Amino-7-[4-fluoro-2-(6-methoxy-pyrazin-2-yl)-phenyl]-4-methyl-6-pyridin-4-ylmethyl-7,8-dihydro-6H-pyrido[4,3-d]pyrimidin-5-one] reads below 10 µM; that for `COc1cccc(-c2cc(F)ccc2[C@H]2Cc3nc(N)nc(C)c3C(=O)N2Cc2ccc(F)cc2)n1` [Compound 160, (R)-2-Amino-6-(4-fluoro-benzyl)-7-[4-fluoro-2-(6-methoxy-pyridin-2-yl)-phenyl]-4-methyl-7,8-dihydro-6H-pyrido[4,3-d]pyrimidin-5-one], below 10 µM.

Still in this test, the particulars now being: Table 4; competition with biotinylated radicicol.
In turn, `COc1ccc(-c2cc(F)ccc2[C@H]2Cc3nc(N)ncc3C(=O)N2)cc1OC` [Compound 179, (R)-2-Amino-7-(5-fluoro-3′,4′-dimethoxy-biphenyl-2-yl)-7,8-dihydro-6H-pyrido[4,3-d]pyrimidin-5-one] returned an IC50 of at least 10 µM.

(Values after patent US20070123546A1, “2-amino-7,8-dihydro-6H-pyrido[4,3-d]pyrimidin-5-ones” (Chiron Corporation, priority 2005, published 2007).)
